US8921571B2, “Pyrrolysine analogs” (The Ohio State University, priority 2009, dated 2014)
Counter-ions that a name gives are not always drawn. Like-named read-outs stand apart in the source and are kept apart here.

How the values were obtained:
[1] = tested on: UAG stop codon readthrough of mCherry (Lys55) with PylT/PylS genes from Methanosarcina mazei; experiment: modified mCherry fluorescence protein assay for stop codon readthrough (Example 2); format: cell-based, E. coli strain BL21(DE3); conditions: for mCherry production: Terrific Broth
Description: The site-specific incorporation efficiencies of these analogs were measured with a modified fluorescence protein assay using a fluorescent protein as a reporting gene to monitor stop codon readthrough. This approach was made compatible with large scale measurements by 1) using mCherry instead of GFP to reduce the fluorescence background introduced by growth medium, 2) growing the host cells in 24-well plates to facilitate handling of multiple samples and minimize deviation between samples, and 3) measuring the fluorescence intensity of the cell culture in the plates to save the labor of electrophoresis and western blotting.
In this study, the Lys55 codon of mCherry was site-specifically mutated to UAG and inserted into the plasmid pPylST harbouring the pyrrolysine tRNA (PylT) and synthetase (PylS) genes from Methanosarcina mazei. E. coli strain BL21(DE3) transformed with this plasmid was grown in the Terrific Broth medium supplied with 2 mM pyrrolysine analog to be examined. […] These differences are seen in FIG. 3, where the results have been normalized against analog 3. Similar results were observed when the supplied analog concentration varied from 0.5 mM to 20 mM.
As analogs 4-6 were prepared and screened as ˜1:1 mixtures of diastereomers, we carried out further readthrough experiments with isomerically pure samples of 6 prepared from commercially available (R)- and (S)-propargylglycines. The readthrough efficiencies of L-6, D-6 and the enantiomer mixture were tested at various concentrations. […] This is seen in FIG. 4. […] One explanation is that the less efficient incorporable isomer L-6 is a competitive inhibitor of D-6.
The effect of the growth medium pH on the readthrough efficiency of D-6 was investigated using the modified mCherry assay. […] When 2 mM D-6 was used as substrate, the production of full-length mCherry increased as the pH of the growth medium increased. The total amount of produced mCherry peaked at pH 8.5 and dropped a little at pH 9.0 due to a lower cell density.

[2] = tested on: UAG codon readthrough of mCherry (Lys55 codon mutated to UAG) with PylT/PylS; experiment: mCherry UAG codon readthrough assay (Example 1); format: cell-based, E. coli strain BL21(DE3); conditions: for readthrough of the UAG codon: Terrific Broth medium, varying concentrations
Description: In order to evaluate the UAG codon readthrough efficiency for the two diastereomers, the brightly emitting red fluorescent protein, mCherry, was employed as a reporter. Briefly, the Lys55 codon of this protein was site-specifically mutated to UAG and inserted into the plasmid pPylST harbouring the pyrrolysine tRNA (PylT) and synthetase (PylS) genes. E. coli strain BL21(DE3) transformed with this plasmid was grown in the Terrific Broth medium supplied with either the (S,S)-isomer or (R,S)-isomer at varying concentrations. […] This is seen in the graph of FIG. 1, where the relative fluorescence of the (S,S)-isomer was higher at all concentrations.

[3] = tested on: recombinant protein; experiment: incorporation into a recombinant protein; format: cell-based
[4] = 2 mM analog, normalized against analog 3, ~1:1 mixture of diastereomers

`C#CCC(O)C(=O)NCCCC[C@H](N)C(=O)O` (stereo partly drawn) [Formula 5] was tested, and the mCherry production ([1]; 2 mM analog) was “no detectable mCherry production”.
With `C#CCC(N)C(=O)NCCCC[C@H](N)C(=O)O` (stereo partly drawn) [Formula 6] the “readthrough efficiency (in words)” value [1] was “best substrate” and the “readthrough efficiency, more efficient than analog 3” value [1, 4] was 69%.
For `C#CCCC(=O)NCCCC[C@H](N)C(=O)O` [Formula 7], the mCherry production ([1]; 2 mM analog) was “no detectable mCherry production”.
`N[C@H](CS)C(=O)NCCCC[C@H](N)C(=O)O` [Formula (1)] was tested, and the “readthrough of the UAG codon” value [2] was “enabled readthrough of the UAG codon” and the “readthrough efficiency, comparison of the two isomers” value ([2]; versus (R,S)-isomer, FIG. 1) was “much better substrate”.
`N[C@@H](CCCCNC(=O)[C@@H](N)CS)C(=O)O` [Formula (2)] was tested, and the “readthrough of the UAG codon” value [2] was “enabled readthrough of the UAG codon”.
In the case of `C#CCC(N)C(=O)NCCCC[C@H](N)C(=O)O` (stereo partly drawn) [Formula (6)], the “readthrough efficiency (in words)” value ([1]; listed as enantiomer mixture) is reported as “moderate efficiency”.
For `[N-]=[N+]=NCC(=O)NCCCC[C@H](N)C(=O)O` [Formula (10), N^6-(Azidoacetyl)lysine trifluoroacetate], the “readthrough efficiency, fold less efficient than analog 3” value [1, 4] was 30 fold.
`CC1(CC(=O)NCCCC[C@H](N)C(=O)O)N=N1` [Formula (11), N^6-(2-(3-Methyl-3H-diazirin-3-yl)acetyl)lysine trifluoroacetate] was tested, and the “incorporation into a recombinant protein” value [3] was “incorporated into a recombinant protein”.
For `C#CC[C@@H](N)C(=O)NCCCC[C@H](N)C(=O)O` [Formula D-6], the “readthrough efficiency (in words)” value [1] was “highly efficient” and the “readthrough efficiency, fold more efficient than L-6” value ([1]; isomerically pure samples, various concentrations, FIG. 4) was 35 fold.
